Test results reported in patent US20080305547A1, “Method for enhanced functional expression of cell receptors” (priority 2007, published 2008).
Each block holds one compound with its values, some of them ahead of it.

Assays:
[1] = biological target: T1, mOR-EG (Mus musculus, UniProt Q920P2); test: cAMP ELISA in transfected HEK293T cells expressing mOR-EG; assay type: cell-based, murine; conditions: cells transfected with mOR-EG, Ric-8B and Gαolf; 300 μM
T1 construct: expressed in transfected cells; host or cells: HEK293T
T1 sequence (Q920P2 1-313): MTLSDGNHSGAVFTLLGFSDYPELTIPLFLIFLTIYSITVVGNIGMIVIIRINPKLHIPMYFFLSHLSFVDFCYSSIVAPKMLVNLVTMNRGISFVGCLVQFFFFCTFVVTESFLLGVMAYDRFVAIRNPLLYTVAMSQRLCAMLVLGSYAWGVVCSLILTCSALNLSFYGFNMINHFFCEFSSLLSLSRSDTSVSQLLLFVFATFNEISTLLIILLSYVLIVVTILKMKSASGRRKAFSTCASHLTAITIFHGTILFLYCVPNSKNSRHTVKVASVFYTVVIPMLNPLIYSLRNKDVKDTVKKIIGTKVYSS
Experimental: (§1) These experiments were carried out in order to determine if Ric-8B amplifies signaling through odorant receptors (“ORs” hereafter). This was accomplished by using one of the murine ORs, i.e., first cloning murine OR-EG (“mOR-EG” hereafter), from murine genomic DNA via polymerase chain reaction (“PCR”), using standard method. Following this, receptor specificity was confirmed by functional expression of the rhodopsin tagged version of mOR-EG, in HEK293T cells. This is explained infra.
(§2) HEK293T cells were plated, at 0.5×10^5 cells/well, of a 96 well plate. The cells were cultured using standard conditions, for 16-20 hours, after which they were transfected, via the well known, lipofectamine method with mOR-EG cDNA that had been subcloned into the XboI and KpnI restriction sites of plasmid pcDNA 3.1 (−), Gαolf whose full length cDNA had been cloned from murine olfactory epithelium, and subcloned into the XboI site of pcDNA 3.1 (−) expression vector, and Ric-8B, whose full length encoding cDNA had been prepared the same way and then cloned into pcDNA3 vector, with a flag epitope, at the BamHI site of pcDNA3 were used. 100 ngs of each cDNA construct were used for transfection. After 3 hours of transfection, serum containing medium was replaced by serum free medium, and the cells were incubated for 40 hours. Then, additional serum free medium containing 300 μM of eugenol was added, after which cells were incubated for 10 minutes. Activity was determined, by using a commercially available, cAMP ELISA kit.
(§3) In these experiments, mOR-EG odorant specificity was tested, in cells which had also been transfected with Ric-8B and Gαolf Vanillin, nonenedoic acid, acetophenone, (−), limonene, heptanol, 2-heptanol, hexanol, and (+/−) cerveone were tested at high concentrations (300 μM).

[2] = tested on: mOR-S6; test: cAMP ELISA in transfected HEK293T cells expressing mOR-S6; assay type: cell-based, murine
Experimental: as §2
The same procedures set forth supra for isolating, cloning, and amplifying mOR-EG were used for the coding region of mOR-S6. Rhodopsin tagged mOR-S6 was also used. The same protocols were carried out as are discussed supra, using nonanedoic acid as the agonist.

[3] = tested on: mOR-S6; conditions: murine olfactory neurons, single cell RT-PCR; cited from earlier work
[4] = biological target: T2, mOR-EG (Mus musculus, UniProt Q920P2); test: cAMP ELISA in transfected HEK293T cells expressing mOR-EG; assay type: cell-based, murine; conditions: HEK293T transfected with rhodopsin tagged mOR-EG, Gαolf (and Ric-8B); 300 μM, 10 minutes
T2 construct: expressed in transfected cells; host or cells: HEK293T
T2 sequence (Q920P2 with tags, fused parts or gaps): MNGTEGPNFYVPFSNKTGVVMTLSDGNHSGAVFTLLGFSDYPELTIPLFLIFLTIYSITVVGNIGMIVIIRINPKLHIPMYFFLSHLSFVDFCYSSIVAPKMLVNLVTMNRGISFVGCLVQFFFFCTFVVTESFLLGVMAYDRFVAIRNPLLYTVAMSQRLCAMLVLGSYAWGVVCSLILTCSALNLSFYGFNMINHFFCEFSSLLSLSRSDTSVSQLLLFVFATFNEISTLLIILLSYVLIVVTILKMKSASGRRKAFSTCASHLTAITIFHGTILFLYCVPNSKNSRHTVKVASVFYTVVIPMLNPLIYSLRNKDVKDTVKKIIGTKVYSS
Experimental: as §1, §2, §3

[5] = biological target: T1, mOR-EG; test: as above; assay type: cell-based, murine; conditions: HEK293T transfected with untagged mOR-EG and Gαolf; 300 μM, 10 minutes
[6] = biological target: T3, murine form of OR-17 (Mus musculus, UniProt Q9QWU6); conditions: co-expression with Gα/16 in HEK293 cells; cited from earlier work
T3 construct: host or cells: HEK293
T3 sequence (Q9QWU6 1-327): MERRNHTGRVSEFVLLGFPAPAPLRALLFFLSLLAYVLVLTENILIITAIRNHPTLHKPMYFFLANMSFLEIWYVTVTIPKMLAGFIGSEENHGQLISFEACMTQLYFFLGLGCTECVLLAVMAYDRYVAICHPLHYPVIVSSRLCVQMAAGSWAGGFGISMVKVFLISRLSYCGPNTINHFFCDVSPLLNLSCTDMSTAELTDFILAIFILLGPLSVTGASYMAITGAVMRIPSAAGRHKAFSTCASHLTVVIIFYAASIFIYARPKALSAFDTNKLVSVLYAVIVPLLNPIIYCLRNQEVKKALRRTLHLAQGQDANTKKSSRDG

[7] = biological target: T4, mOR-17 (Mus musculus, UniProt Q9QWU6); test: cAMP ELISA in transfected HEK293T cells expressing mOR-17; assay type: cell-based, murine
T4 construct: expressed in transfected cells; host or cells: HEK293T
T4 sequence (Q9QWU6 1-327): T3 sequence (Q9QWU6 1-327)
Experimental: as §2
To further this work, the same protocols as are described supra were carried out, using untagged mOR-17, Gαolf, Ric-8B, and RTP1.

[8] = biological target: T5, OR-17 (Mus musculus, UniProt Q9QWU6); conditions: GFP tagged mouse olfactory neurons endogenously expressing OR-17; cited from earlier work
T5 construct: mouse olfactory neurons which endogenously express OR-17; host or cells: mouse olfactory neurons
T5 sequence (Q9QWU6 1-327): T3 sequence (Q9QWU6 1-327)

[9] = biological target: T6, rat OR-17 (Rattus norvegicus, UniProt P23270); conditions: cited from earlier work
T6 sequence (P23270 1-327): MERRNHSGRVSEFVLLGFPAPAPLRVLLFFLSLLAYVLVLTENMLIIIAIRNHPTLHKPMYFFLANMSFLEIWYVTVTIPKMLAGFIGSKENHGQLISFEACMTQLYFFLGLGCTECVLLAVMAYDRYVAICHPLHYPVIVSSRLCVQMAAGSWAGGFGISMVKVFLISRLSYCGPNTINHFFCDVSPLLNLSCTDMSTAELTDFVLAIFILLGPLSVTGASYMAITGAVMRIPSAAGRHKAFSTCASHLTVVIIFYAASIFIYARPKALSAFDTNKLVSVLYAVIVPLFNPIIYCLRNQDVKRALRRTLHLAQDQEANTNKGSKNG

[10] = biological target: T2, mOR-EG; conditions: previously shown; cited from earlier work

SMILES: O=C(O)CCCCCCCC(=O)O [nonanedoic acid]
stimulation of cAMP production (odorant specificity) [1]: Only eugenol stimulated production of cAMP
increase in cAMP production ([2]; all four elements: rhodopsin tagged mOR-S6, Ric-8B, RTP1 and Gαolf): significant increase
increase in cAMP production ([2]; cells co-transfected with mOR-S6, Gαolf and Ric-8B): no significant increase
increase in cAMP production ([2]; cells co-transfected with mOR-S6 and Gαolf): no significant increase
increase in cAMP production ([2]; mOR-S6, Gαolf and RTP1 (RTP1 replaced Ric-8B)): slight, insignificant increase
increase in cAMP production ([2]; non-tagged mOR-S6 in parallel expression systems (Ric-8B, RTP1, Gαolf)): not observed
response of the OR to the odorant [3]: responded

SMILES: C=CCc1ccc(O)c(OC)c1 [eugenol]
stimulation of cAMP production (odorant specificity) [1]: stimulated production of cAMP
increase in cAMP levels as compared to unstimulated cells (factor) [4]: ~3
response to the agonist (cAMP) [5]: did not respond

SMILES: CC(=O)c1ccccc1 [acetophenone]
stimulation of cAMP production (odorant specificity) [1]: Only eugenol stimulated production of cAMP

SMILES: CCCCCC(C)O (stereo not drawn) [2-heptanol]
stimulation of cAMP production (odorant specificity) [1]: Only eugenol stimulated production of cAMP

response of transfected cells to odorant (cAMP) ([7]; all four elements: untagged mOR-17, Gαolf, Ric-8B and RTP1): responded to heptanal specifically
response of transfected cells to odorant (cAMP) ([7]; untagged mOR-17, Gαolf and RTP1 (RTP1 replaced Ric-8B)): did not
response of transfected cells to odorant (cAMP) ([7]; untagged mOR-17, Gαolf and Ric-8B): responded
SMILES: CCCCCCC=O [heptanal]
recognition of odorant by receptor [6]: preferentially recognizes
recognition of odorant by receptor [8]: recognized

SMILES: C=C(C)C1CC=C(C)C(=O)C1 (racemic) [(+/−) cerveone, cerveone]
stimulation of cAMP production (odorant specificity) [1]: Only eugenol stimulated production of cAMP

SMILES: CCCCCCCO [heptanol]
stimulation of cAMP production (odorant specificity) [1]: Only eugenol stimulated production of cAMP

SMILES: CCCCCCCCO [octanol]
recognition of odorant by receptor [9]: recognizes

SMILES: COc1cc(C=O)ccc1O [Vanillin]
stimulation of cAMP production (odorant specificity) [1]: Only eugenol stimulated production of cAMP
stimulation of rhodopsin tagged mOR-EG [10]: has been shown to stimulate

SMILES: C=C(C)[C@H]1CC=C(C)CC1 [limonene]
stimulation of cAMP production (odorant specificity) [1]: Only eugenol stimulated production of cAMP

SMILES: CCCCCCO [hexanol]
stimulation of cAMP production (odorant specificity) [1]: Only eugenol stimulated production of cAMP
